{"source": "paper PMC7598995", "about": "“HT-SuMD: making molecular dynamics simulations suitable for fragment-based screening. A comparative study with NMR” (Journal of Enzyme Inhibition and Medicinal Chemistry, 2020)", "target": "T1, Bcl-XL (Homo sapiens, UniProt Q07817)", "T1 construct": "gene BCL2L1; human Bcl-XL lacking the C-terminus domain (Δ209-233), 6His-tagged", "T1 sequence (Q07817 1-208)": "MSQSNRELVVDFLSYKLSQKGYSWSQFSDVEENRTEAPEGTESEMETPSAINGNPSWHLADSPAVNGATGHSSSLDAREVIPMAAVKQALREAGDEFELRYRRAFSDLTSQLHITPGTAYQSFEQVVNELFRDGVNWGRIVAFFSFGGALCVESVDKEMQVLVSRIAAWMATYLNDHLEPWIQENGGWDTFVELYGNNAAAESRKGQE", "assay": "NMR: […] SOFAST-HMQC titration, plus STD and WaterLOGSY", "format": "binding", "data": [{"smiles": "Oc1ccccc1Cc1ccccc1", "note": "[compound 222, fragment 222]", "values": [{"measurement": "Kd", "result": "1000 ± 400", "unit": "µM"}]}]}
